Source: US20130158112A1, “COMPOSITIONS AND METHODS FOR INHIBITING BETA AMYLOID SECRETION” (priority 2011, published 2013)
Where two headings read alike, the source gives them in different places.

Key:
H4βAPP695 wt cells [1] = conditions: human, 24 h
Aβ secretion [2] = assay: Secreted total Aβ ELISA in conditioned media of H4βAPP695 wt cells; format: cell-based, human; conditions: for inhibition at 10 µM / inhibition at 30 µM: Homo sapiens, 24 h, H4βAPP695 wt cells; for inhibition at 10 µM: read-out: Total Aβ (% decrease) 10 μM Mean; for inhibition at 30 µM: read-out: Total Aβ (% decrease) 30 μM Mean; for Aβ secretion inhibiting activity (structure activity summary): in words
Method in brief: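 H4 […] cells stably expressing wild-type βAPP695 (CMV promoter), serum-starved 24 h, then exposed to drug in DMSO or vehicle for 24 h before Aβ in conditioned media was measured. Primary cortical neurons came from E18 APPswe/PSEN1dE9 mice on C57BL/6 background.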

[3] = system: THLE-3 human hepatoma cells; assay: Drug activity persistence after incubation with THLE-3 hepatoma cells; format: in vitro ADME; conditions: for inhibition at 10 µM: Homo sapiens, THLE3, 24 h; for % remaining Activity: after 24 h incubation with hepatoma cells
Method: (§1) H4βAPP695 wt cells, a human […] cell line stably transfected with a wtβAPP695 expression vector construct under the control of a CMV promoter (kindly provided by Dr. Chris Eckman from Mayo Clinic, Florida) were cultured as previously described. Twenty-four hours before drug treatment, the media was replaced with serum-free media. Cells were then incubated with drugs (dissolved in DMSO) or vehicle for 24 h for collection of conditioned media and cell lysates. For the PKC inhibitors experiment, three inhibitors were treated 30 min prior to drug challenge. Primary cortical neurons were prepared from embryonic day 18 APP and presenilin 1 (APPswe, PSEN1dE9) transgenic mice on the C57BL/6 genetic background (Jackson Laboratories, strain no. 5864) as previously described. THLE-3 human hepatoma cells (from ATCC) were plated in 24-well plates that were precoated with 10 μg/mL bovine serum albumin, 10 μg/mL fibronectin, and 30 μg/mL bovine type I collagen. The cells were grown in BEGM media (Clonetics) until confluent and treated with drugs at 20 μM for 24 h. This conditioned media was harvested, diluted 1:1 in serum-free medium, and incubated with H4βAPP695 wt cells for 24 h prior to analysis of secreted Aβ, which was compared to the effect of 10 μM drug treatments without prior incubation with the THLE-3 cells. Caco-2 cells (ATCC) were plated in 12-well plates with Transwell inserts (Costar) at 70000 cells per well and grown for 21 days. The media volume of the apical and basal chambers was 0.5 and 1.5 mL, respectively. Transepithelial resistance was measured in each well and found to be >160 Ω/cm^2. Drugs at 40 μM and 20 μg/mL of lucifer yellow were added in serum-free medium to the apical chamber. Four hours later, the basal chamber media was harvested and used to measure lucifer yellow fluorescence to confirm monolayer integrity as well as for treatment of H4βAPP695 wt cells for 24 h prior to analysis of secreted Aβ, which was compared to the effect of direct addition of 10 μM of the corresponding drug.
To screen for resistance to metabolism, 1 and eight noncytotoxic analogues with >50% Aβ reducing activity (compounds 27, 29, 48, 52, 53, 65, 73, and 76) were incubated at 20 μM for 24 h with or without THLE-3 human hepatoma cells.

H4βAPP695 wt cells [4] = assay: Cytotoxicity by total cell protein content (BCA) of H4βAPP695 wt cells; conditions: cytotoxicity
Caco-2 cells = assay: Epithelial transcellular transport of drug activity through Caco-2 monolayers; format: in vitro ADME; conditions: for % theoretical activity: % of activity passing through Caco-2 monolayer; for inhibition at 10 µM / inhibition at up to 10 µM: Homo sapiens; for inhibition at 10 µM: Caco-2, 10 μM drug alone added directly to H4βAPP695 wt cells, read-out: transcellular transport No total Aβ (% decrease); for inhibition at up to 10 µM: Caco-2, 4 h, lower chamber media after 4 h on Caco-2 monolayer, 10 μM if in equilibrium, read-out: transcellular transport Yes total Aβ (% decrease)
Method: as §1
Monolayer integrity was confirmed by high levels of transcellular electrical resistance (>160 ohms/cm^2) and by transcellular impermeability to the fluorescent dye lucifer yellow. […] The concentration of each compound added to the upper chamber would lead to 10 μM in the lower chamber if equilibration was complete, and thus the activity of the lower chamber media was compared to the activity of 10 μM drug added directly to the H4βAPP695 wt cells. […] Compound 1 crossed the monolayer and the bottom chamber media led to a 27% reduction in Aβ production, yielding 38% of the theoretical activity. The compound with the most activity in the lower chamber was compound 48, which decreased Aβ production by 50%, with 71% of its theoretical activity. […] On the basis of the combined activity data from these last two studies, compound 48 was selected as the lead drug for in vivo study.

Aβ secretion [5] = assay: PKC inhibitors experiment on Aβ secretion; format: cell-based, human; conditions: for effect on basal Aβ secretion: PKC inhibitor alone; for effect of PKC inhibitor on compound 1 inhibited Aβ secretion: inhibitor given 30 min prior to compound 1
Method: as §1
The tumor promoter phorbal myristate acetate is an activator of protein kinase C (PKC) that has been reported to activate α-secretase activity. Thus, we wanted to determine if protein kinase C inhibitors could block the effect of compound 1 on Aβ secretion.

[6] = 10 μM on H4 cells, without preincubation with hepatoma cells, read-out: hepatoma incubation No total Aβ (% decrease)
[7] = 20 μM preincubated 24 h with THLE-3 hepatoma cells, diluted to 10 μM on H4 cells, read-out: hepatoma incubation Yes total Aβ (% decrease)

melting point | % remaining Activity [3] | % theoretical activity (Caco-2 cells) | Molecule | Cell protein (% decrease) 10 μM Mean (H4βAPP695 wt cells [1]) | Cell protein (% decrease) 30 μM Mean (H4βAPP695 wt cells [1]) | inhibition at 10 µM (Aβ secretion [2]) | inhibition at 30 µM (Aβ secretion [2]) | Aβ secretion inhibiting activity (structure activity summary) (Aβ secretion [2]) | inhibition at 10 µM [3, 6] | inhibition at 10 µM [3, 7] | Cell protein (% decrease) 10 μM Mean (H4βAPP695 wt cells [4]) | Cell protein (% decrease) 30 μM Mean (H4βAPP695 wt cells [4]) | inhibition at 10 µM (Caco-2 cells) | inhibition at up to 10 µM (Caco-2 cells) | effect on basal Aβ secretion (Aβ secretion [5]) | effect of PKC inhibitor on compound 1 inhibited Aβ secretion (Aβ secretion [5]) | hepatoma incubation Yes total Aβ (% decrease) ([3]; 20 μM preincubated 24 h with THLE-3 hepatoma cells, diluted to 10 μM on H4 cells)
– | 37% | 29.5% | COc1cccc(CSCCNC(=O)c2c(Cl)cccc2Cl)c1 [Compound 27, 2,6-dichloro-N-[2-(3-methoxy-benzylsulfanyl)-ethyl]-benzamide] | – | – | > 50% | 73.9% | good activity | 60.6% | 22.2% | 8.4% | 13.2% | 60.6% | 17.9% | – | – | –
83 to 84 °C | 49% | 4.0% | COc1cc(Cl)cc(CSCCNC(=O)c2c(Cl)cccc2Cl)c1 [Compound 73, 2,6-Dichloro-N-[2-(3-chloro-5-methoxy-benzylsulfanyl)-ethyl]-benzamide] | – | – | > 50% | 81% | could be tolerated | 67.7% | 33.5% | 0.9% | 0.4% | 67.7% | 2.7% | – | – | –
108 to 110 °C | – | 45.9% | COc1cccc(CSCCNC(=O)c2c(Cl)cccc2Cl)c1OC [Compound 52, 2,6-Dichloro-N-[2-(2,3-dimethoxy-benzylsulfanyl)-ethyl]-benzamide] | – | – | > 50% | 72.8% | could be tolerated | 57.8% | 1.9% | −0.1% | 8.7% | 57.8% | 26.5% | – | – | –
96 to 97 °C | 52% | 60.1% | O=C(NCCSCc1ccccc1)c1c(Cl)cccc1Cl [Compound 65, N-(2-Benzylsulfanyl-ethyl)-2,6-dichloro-benzamide] | – | – | > 50% | 58.6% | retained activity | 51.6% | 27% | −1.1% | −0.7% | 51.6% | 31% | – | – | –
110 to 112 °C | 65% | 41.8% | O=C(NCCSCc1ccccc1Cl)c1c(Cl)cccc1Cl [Compound 76, 2,6-Dichloro-N-[2-(2-chloro-benzylsulfanyl)-ethyl]-benzamide] | – | – | – | 80% | retained activity | 75.6% | 49% | −0.5% | −11% | 75.6% | 32% | – | – | –
75 to 78 °C | 47% | 1.3% | O=C(NCCSCc1cccc(I)c1)c1c(Cl)cccc1Cl [Compound 53, 2,6-Dichloro-N-[2-(3-iodo-benzylsulfanyl)-ethyl]-benzamide] | – | – | – | 88.3% | good activity | 84.4% | 40% | 9.2% | 19% | 84.4% | 1% | – | – | 40.0%

The next lines start with the molecule.

Molecule | melting point | % remaining Activity [3] | % theoretical activity (Caco-2 cells) | Cell protein (% decrease) 10 μM Mean (H4βAPP695 wt cells [1]) | Cell protein (% decrease) 30 μM Mean (H4βAPP695 wt cells [1]) | inhibition at 10 µM (Aβ secretion [2]) | inhibition at 30 µM (Aβ secretion [2]) | Aβ secretion inhibiting activity (structure activity summary) (Aβ secretion [2]) | inhibition at 10 µM [3, 6] | inhibition at 10 µM [3, 7] | Cell protein (% decrease) 10 μM Mean (H4βAPP695 wt cells [4]) | Cell protein (% decrease) 30 μM Mean (H4βAPP695 wt cells [4]) | inhibition at 10 µM (Caco-2 cells) | inhibition at up to 10 µM (Caco-2 cells) | effect on basal Aβ secretion (Aβ secretion [5]) | effect of PKC inhibitor on compound 1 inhibited Aβ secretion (Aβ secretion [5]) | hepatoma incubation Yes total Aβ (% decrease) ([3]; 20 μM preincubated 24 h with THLE-3 hepatoma cells, diluted to 10 μM on H4 cells)
O=C(NCCSCc1cccc(Cl)c1)c1c([N+](=O)[O-])cccc1[N+](=O)[O-] [Compound 56, N-[2-(3-Chloro-benzylsulfanyl)-ethyl]-2,6-dinitro-benzamide] | 139 to 140 °C | – | – | 0.1% | 17.8% | 28.8% | 52.9% | not well tolerated | – | – | – | – | – | – | – | – | –
COc1cccc(CSCCNC(=O)c2c([N+](=O)[O-])cccc2[N+](=O)[O-])c1 [Compound 37, N-[2-(3-Methoxy-benzylsulfanyl)-ethyl]-2,6-dinitro-benzamide] | 69 to 71 °C | – | – | 3.7% | −3.8% | -14.1% | -2.8% | not well tolerated | – | – | – | – | – | – | – | – | –
CN(C)CCCn1cc(C2=C(c3c[nH]c4ccccc34)C(=O)NC2=O)c2ccccc21 [Bisindolylmaleimide I] | – | – | – | – | – | – | – | – | – | – | – | – | – | – | no effect | no effect | –
Calphostin C | – | – | – | – | – | – | – | – | – | – | – | – | – | – | no effect | no effect | –
CC(=O)c1c(O)c(C)c(O)c(Cc2c(O)c3c(c(C(=O)/C=C/c4ccccc4)c2O)OC(C)(C)C=C3)c1O [Rottlerin] | – | – | – | – | – | – | – | – | – | – | – | – | – | – | reduced Aβ secretion | did not significantly alter the effect of compound 1 | –
